Results as given in BigSolDB 2.1.

CC1(C)[C@@H](O)CC[C@]2(C)[C@H]3C(=O)C=C4[C@@H]5C[C@@](C)(C(=O)O)CC[C@]5(C)CC[C@@]4(C)[C@]3(C)CC[C@@H]12
Details	solubility (mole fraction)
in 1,4-dioxane, 288.15 K	0.0269
in 1,4-dioxane, 293.15 K	0.028
in 1,4-dioxane, 298.15 K	0.0297
in 1,4-dioxane, 303.15 K	0.0315
in 1,4-dioxane, 308.15 K	0.0327
in 1,4-dioxane, 313.15 K	0.0337
in 1,4-dioxane, 318.15 K	0.0349
in 1,4-dioxane, 323.15 K	0.036
in DMF, 278.15 K	0.0467
in DMF, 283.15 K	0.0474
in DMF, 288.15 K	0.0515
in DMF, 293.15 K	0.0552
in DMF, 298.15 K	0.0576
in DMF, 303.15 K	0.0598
in DMF, 308.15 K	0.0643
in DMF, 313.15 K	0.0678
in DMF, 318.15 K	0.0716
in DMF, 323.15 K	0.0763
in THF, 278.15 K	0.0764
in THF, 283.15 K	0.077
in THF, 288.15 K	0.0774
in THF, 293.15 K	0.078
in THF, 298.15 K	0.0787
in THF, 303.15 K	0.0794
in THF, 308.15 K	0.0804
in THF, 313.15 K	0.0815
in THF, 318.15 K	0.0827
in THF, 323.15 K	0.0842
in acetone, 278.15 K	0.00321
in acetone, 283.15 K	0.00347
in acetone, 288.65 K	0.00365
in acetone, 293.15 K	0.0038
in acetone, 298.15 K	0.00414
in acetone, 303.15 K	0.00438
in acetone, 308.15 K	0.00468
in acetone, 313.15 K	0.00495
in acetone, 318.15 K	0.00543
in acetone, 323.15 K	0.00598
in ethanol, 278.15 K	0.0106
in ethanol, 283.15 K	0.0112
in ethanol, 288.65 K	0.0125
in ethanol, 293.15 K	0.0132
in ethanol, 298.15 K	0.0138
in ethanol, 303.15 K	0.0143
in ethanol, 308.15 K	0.0148
in ethanol, 313.15 K	0.0152
in ethanol, 318.15 K	0.0158
in ethanol, 323.15 K	0.0168
in isobutyl acetate, 278.15 K	0.00229
in isobutyl acetate, 283.15 K	0.00232
in isobutyl acetate, 288.15 K	0.00239
in isobutyl acetate, 293.15 K	0.00242
in isobutyl acetate, 298.15 K	0.00247
in isobutyl acetate, 303.15 K	0.00256
in isobutyl acetate, 308.15 K	0.00273
in isobutyl acetate, 313.15 K	0.00278
in isobutyl acetate, 318.15 K	0.00288
in isobutyl acetate, 323.15 K	0.00314
in isopropanol, 278.15 K	0.00857
in isopropanol, 283.15 K	0.00946
in isopropanol, 288.65 K	0.0114
in isopropanol, 293.15 K	0.012
in isopropanol, 298.15 K	0.0129
in isopropanol, 303.15 K	0.0139
in isopropanol, 308.15 K	0.0149
in isopropanol, 313.15 K	0.0156
in isopropanol, 318.15 K	0.0164
in isopropanol, 323.15 K	0.0174
in methanol, 278.15 K	0.00229
in methanol, 283.15 K	0.00257
in methanol, 288.65 K	0.00295
in methanol, 293.15 K	0.00329
in methanol, 298.15 K	0.00373
in methanol, 303.15 K	0.00427
in methanol, 308.15 K	0.00486
in methanol, 313.15 K	0.00562
in methanol, 318.15 K	0.00675
in methanol, 323.15 K	0.00755
in methyl acetate, 278.15 K	0.00182
in methyl acetate, 283.15 K	0.00196
in methyl acetate, 288.15 K	0.00203
in methyl acetate, 293.15 K	0.00227
in methyl acetate, 298.15 K	0.00244
in methyl acetate, 303.15 K	0.00259
in methyl acetate, 308.15 K	0.0027
in methyl acetate, 313.15 K	0.00293
in methyl acetate, 318.15 K	0.00319
in methyl acetate, 323.15 K	0.0034
in n-butyl acetate, 278.15 K	0.00286
in n-butyl acetate, 283.15 K	0.00297
in n-butyl acetate, 288.15 K	0.00315
in n-butyl acetate, 293.15 K	0.00327
in n-butyl acetate, 298.15 K	0.00333
in n-butyl acetate, 303.15 K	0.00344
in n-butyl acetate, 308.15 K	0.0035
in n-butyl acetate, 313.15 K	0.00354
in n-butyl acetate, 318.15 K	0.00359
in n-butyl acetate, 323.15 K	0.00364
in n-propanol, 278.15 K	0.0131
in n-propanol, 283.15 K	0.0146
in n-propanol, 288.65 K	0.016
in n-propanol, 293.15 K	0.0174
in n-propanol, 298.15 K	0.0186
in n-propanol, 303.15 K	0.0194
in n-propanol, 308.15 K	0.0206
in n-propanol, 313.15 K	0.0218
in n-propanol, 318.15 K	0.0223
in n-propanol, 323.15 K	0.023
in n-propyl acetate, 278.15 K	0.00157
in n-propyl acetate, 283.15 K	0.00176
in n-propyl acetate, 288.15 K	0.00193
in n-propyl acetate, 293.15 K	0.00211
in n-propyl acetate, 298.15 K	0.00232
in n-propyl acetate, 303.15 K	0.00245
in n-propyl acetate, 308.15 K	0.00261
in n-propyl acetate, 313.15 K	0.00273
in n-propyl acetate, 318.15 K	0.00284
in n-propyl acetate, 323.15 K	0.00295
